# Measurements reported in ChEMBL document CHEMBL1201862, “PubChem BioAssay data set” (2004).
#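 How tested: cells in 96-well plates exposed to compound for 48 hours at five concentrations. Here, GI50 denotes the concentration required for 50% inhibition of growth.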 Active and inactive are the calls of the source. No stated cut-off is given here; in the data, active = GI50 up to about 1.1 µM and inactive = higher.
# Key:
# Experiment in all cases: NCI anticancer screen, dose series, 48 h
# [1] = system: 786-0
# [2] = system: A498
# [3] = system: A549
# [4] = system: ACHN
# [5] = system: CAKI-1
# [6] = system: CCRF-CEM
# [7] = system: COLO 205
# [8] = system: DLD-1
# [9] = system: DMS-114
# [10] = system: DMS-273
# [11] = system: HCC 2998
# [12] = system: HCT-116
# [13] = system: HCT-15
# [14] = system: HL-60
# [15] = system: HOP-18
# [16] = system: HOP-62
# [17] = system: HOP-92
# [18] = system: HT-29
# [19] = system: IGROV-1
# [20] = system: K562
# [21] = system: KM-20L2
# [22] = system: LOX IMVI
# [23] = system: LXFL 529
# [24] = system: M14
# [25] = system: M19-MEL
# [26] = system: MOLT-4
# [27] = system: Malme-3M
# [28] = system: NCI-H226
# [29] = system: NCI-H23
# [30] = system: NCI-H460
# [31] = system: OVCAR-3
# [32] = system: OVCAR-4
# [33] = system: OVCAR-5
# [34] = system: OVCAR-8
# [35] = system: RPMI-8226
# [36] = system: RXF 631
# [37] = system: SF-268
# [38] = system: SF-295
# [39] = system: SK-MEL-28
# [40] = system: SK-MEL-5
# [41] = system: SK-OV-3
# [42] = system: SN12C
# [43] = system: SNB-19
# [44] = system: SR
# [45] = system: SW-620
# [46] = system: TK-10
# [47] = system: U-251
# [48] = system: UACC-257
# [49] = system: UACC-62
# [50] = system: UO-31
# [51] = system: EKVX
# [52] = system: KM12
# [53] = system: NCI-H522
# [54] = system: RXF 393
# [55] = system: SF-539
# [56] = system: SK-MEL-2
# [57] = system: SNB-75
# [58] = system: SNB-78
structure (smiles),measurement,setting,value
Cc1ccc(S(=O)(=O)OCC23CCC(C4CC42)C2CC23)cc1 (stereo not drawn),GI50,[1],> 100 µM (inactive)
same,GI50,[2],96.2 µM (inactive)
same,GI50,[3],80.4 µM (inactive)
same,GI50,[4],> 100 µM (inactive)
same,GI50,[5],> 100 µM (inactive)
same,GI50,[6],22.8 µM (inactive)
same,GI50,[7],95.9 µM (inactive)
same,GI50,[8],> 100 µM (inactive)
same,GI50,[9],37.5 µM (inactive)
same,GI50,[10],68.2 µM (inactive)
same,GI50,[11],> 100 µM (inactive)
same,GI50,[12],87.7 µM (inactive)
same,GI50,[13],> 100 µM
same,GI50,[14],17.7 µM (inactive)
same,GI50,[15],> 100 µM (inactive)
same,GI50,[16],52.7 µM (inactive)
same,GI50,[17],29.2 µM (inactive)
same,GI50,[18],43.8 µM (inactive)
same,GI50,[19],> 100 µM (inactive)
same,GI50,[20],52.4 µM (inactive)
same,GI50,[21],> 100 µM (inactive)
same,GI50,[22],> 100 µM (inactive)
same,GI50,[23],65 µM (inactive)
same,GI50,[24],> 100 µM (inactive)
same,GI50,[25],60.7 µM (inactive)
same,GI50,[26],50.8 µM (inactive)
same,GI50,[27],75.5 µM (inactive)
same,GI50,[28],95.7 µM (inactive)
same,GI50,[29],48.8 µM (inactive)
same,GI50,[30],88.1 µM (inactive)
same,GI50,[31],38.5 µM (inactive)
same,GI50,[32],28.1 µM (inactive)
same,GI50,[33],> 100 µM (inactive)
same,GI50,[34],> 100 µM (inactive)
same,GI50,[35],36.3 µM (inactive)
same,GI50,[36],> 100 µM (inactive)
same,GI50,[37],67.9 µM (inactive)
same,GI50,[38],50.8 µM (inactive)
same,GI50,[39],> 100 µM (inactive)
same,GI50,[40],31.6 µM (inactive)
same,GI50,[41],> 100 µM (inactive)
same,GI50,[42],> 100 µM (inactive)
same,GI50,[43],> 100 µM (inactive)
same,GI50,[44],38.5 µM (inactive)
same,GI50,[45],> 100 µM (inactive)
same,GI50,[46],> 100 µM (inactive)
same,GI50,[47],> 100 µM (inactive)
same,GI50,[48],7.01 µM (inactive)
same,GI50,[49],65.6 µM (inactive)
same,GI50,[50],44.2 µM (inactive)
C1=CC=C2NCCCCCC/N=C3\C=CC=CC=C3NCCc3cccc(c3)CC/N=C/2C=C1,GI50,[1],10 µM (inactive)
same,GI50,[3],35.2 µM (inactive)
same,GI50,[4],33 µM (inactive)
same,GI50,[5],33.3 µM (inactive)
same,GI50,[6],15.9 µM (inactive)
same,GI50,[7],14.3 µM (inactive)
same,GI50,[8],36.6 µM (inactive)
same,GI50,[9],13.3 µM (inactive)
same,GI50,[10],10.2 µM (inactive)
same,GI50,[51],37 µM (inactive)
same,GI50,[11],10 µM (inactive)
same,GI50,[12],6.27 µM (inactive)
same,GI50,[13],15.8 µM
same,GI50,[14],5.43 µM (inactive)
same,GI50,[16],10 µM (inactive)
same,GI50,[17],23.7 µM (inactive)
same,GI50,[18],6.07 µM (inactive)
same,GI50,[19],16.9 µM (inactive)
same,GI50,[20],4.59 µM (inactive)
same,GI50,[21],4.81 µM (inactive)
same,GI50,[52],14.7 µM (inactive)
same,GI50,[22],4.63 µM (inactive)
same,GI50,[23],10.7 µM (inactive)
same,GI50,[24],11 µM (inactive)
same,GI50,[25],16.7 µM (inactive)
same,GI50,[26],7.78 µM (inactive)
same,GI50,[27],35.3 µM (inactive)
same,GI50,[28],32.5 µM (inactive)
same,GI50,[29],13.1 µM (inactive)
same,GI50,[30],5.42 µM (inactive)
same,GI50,[53],16.9 µM (inactive)
same,GI50,[31],27.7 µM (inactive)
same,GI50,[32],12.7 µM (inactive)
same,GI50,[33],14.4 µM (inactive)
same,GI50,[34],14.8 µM (inactive)
same,GI50,[35],7.45 µM (inactive)
same,GI50,[54],13.4 µM (inactive)
same,GI50,[36],11.2 µM (inactive)
same,GI50,[37],31.7 µM (inactive)
same,GI50,[38],16.9 µM (inactive)
same,GI50,[55],10.8 µM (inactive)
same,GI50,[56],26.9 µM (inactive)
same,GI50,[41],25.5 µM (inactive)
same,GI50,[42],29.7 µM (inactive)
same,GI50,[43],26.5 µM (inactive)
same,GI50,[57],21.3 µM (inactive)
same,GI50,[58],> 100 µM (inactive)
same,GI50,[44],9.82 µM (inactive)
same,GI50,[45],4.67 µM (inactive)
same,GI50,[47],18.7 µM (inactive)
same,GI50,[48],22.8 µM (inactive)
same,GI50,[49],21.7 µM (inactive)
same,GI50,[50],16.7 µM (inactive)
